Source: patent US20100041089A1, “IMPROVED METHOD FOR DETECTING CHEMICAL […]” (priority 2006, published 2010)

Tested on: yeast genes (expressed mRNA)
Assay: DNA chip measurement of expressed mRNA of yeast genes after culture with a toxic chemical substance
Type: cell-based, Saccharomyces cerevisiae S288C
Summary of the method: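 Expression is given as treated/untreated fluorescence ratio on a whole-genome yeast DNA chip, a ratio of two or more being significant. Log-phase S288C cultures in YPD at 25 °C received the chemical for 2 h at a dose that slows growth without killing. mRNA was reverse-transcribed with Cy3- or Cy5-dUTP.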

In the case of `Oc1cc(Cl)c(Cl)cc1Cl` [(6), 2,4,5-Trichlorophenol], the “The level of expressed mRNA in the presence of chemical substance/The level of expressed mRNA in the absence of chemical substance” value (yeast gene YJR054W, cultured two hours with substance) is reported as 0.7, the “The level of expressed mRNA in the presence of chemical substance/The level of expressed mRNA in the absence of chemical substance” value (yeast gene YKL039W) is reported as 4.9 and the “The level of expressed mRNA in the presence of chemical substance/The level of expressed mRNA in the absence of chemical substance” value (yeast gene YKL071W, cultured two hours with substance) is reported as 18.6. The “The level of expressed mRNA in the presence of chemical substance/The level of expressed mRNA in the absence of chemical substance” value (yeast gene YKL086W, cultured two hours with substance) was 1.0, the “The level of expressed mRNA in the presence of chemical substance/The level of expressed mRNA in the absence of chemical substance” value (yeast gene YKL151C, cultured two hours with substance) was 2.0 and the “The level of expressed mRNA in the presence of chemical substance/The level of expressed mRNA in the absence of chemical substance” value (yeast gene YKL153W, cultured two hours with substance) was 2.9. The “The level of expressed mRNA in the presence of chemical substance/The level of expressed mRNA in the absence of chemical substance” value (yeast gene YKL195W, cultured two hours with substance) was 2.5, the “The level of expressed mRNA in the presence of chemical substance/The level of expressed mRNA in the absence of chemical substance” value (yeast gene YKR076W) was 4.7 and the “The level of expressed mRNA in the presence of chemical substance/The level of expressed mRNA in the absence of chemical substance” value (yeast gene YKR091W, cultured two hours with substance) was 1.0. The “The level of expressed mRNA in the presence of chemical substance/The level of expressed mRNA in the absence of chemical substance” value (yeast gene YLR054C, cultured two hours with substance) was 1.2, the “The level of expressed mRNA in the presence of chemical substance/The level of expressed mRNA in the absence of chemical substance” value (yeast gene YLR149C, cultured two hours with substance) was 1.4 and the “The level of expressed mRNA in the presence of chemical substance/The level of expressed mRNA in the absence of chemical substance” value (yeast gene YLR152C, cultured two hours with substance) was 2.1. The “The level of expressed mRNA in the presence of chemical substance/The level of expressed mRNA in the absence of chemical substance” value (yeast gene YLR194C, cultured two hours with substance) was 0.9, the “The level of expressed mRNA in the presence of chemical substance/The level of expressed mRNA in the absence of chemical substance” value (yeast gene YLR280C, cultured two hours with substance) was 0.9 and the “The level of expressed mRNA in the presence of chemical substance/The level of expressed mRNA in the absence of chemical substance” value (yeast gene YLR324W, cultured two hours with substance) was 1.2. The “The level of expressed mRNA in the presence of chemical substance/The level of expressed mRNA in the absence of chemical substance” value (yeast gene YLR350W, cultured two hours with substance) was 1.6, the “The level of expressed mRNA in the presence of chemical substance/The level of expressed mRNA in the absence of chemical substance” value (yeast gene YLR387C, cultured two hours with substance) was 1.9 and the “The level of expressed mRNA in the presence of chemical substance/The level of expressed mRNA in the absence of chemical substance” value (yeast gene YLR460C, cultured two hours with substance) was 0.6. For the same molecule, the “The level of expressed mRNA in the presence of chemical substance/The level of expressed mRNA in the absence of chemical substance” value (yeast gene YML117W, cultured two hours with substance) was 1.0, the “The level of expressed mRNA in the presence of chemical substance/The level of expressed mRNA in the absence of chemical substance” value (yeast gene YML128C, cultured two hours with substance) was 5.1 and the “The level of expressed mRNA in the presence of chemical substance/The level of expressed mRNA in the absence of chemical substance” value (yeast gene YMR009W, cultured two hours with substance) was 1.2. For the same molecule, the “The level of expressed mRNA in the presence of chemical substance/The level of expressed mRNA in the absence of chemical substance” value (yeast gene YMR067C, cultured two hours with substance) was 1.4, the “The level of expressed mRNA in the presence of chemical substance/The level of expressed mRNA in the absence of chemical substance” value (yeast gene YMR090W, cultured two hours with substance) was 3.8 and the “The level of expressed mRNA in the presence of chemical substance/The level of expressed mRNA in the absence of chemical substance” value (yeast gene YMR095C, cultured two hours with substance) was 0.7. For the same molecule, the “The level of expressed mRNA in the presence of chemical substance/The level of expressed mRNA in the absence of chemical substance” value (yeast gene YMR097C, cultured two hours with substance) was 1.2, the “The level of expressed mRNA in the presence of chemical substance/The level of expressed mRNA in the absence of chemical substance” value (yeast gene YMR102C, cultured two hours with substance) was 6.3 and the “The level of expressed mRNA in the presence of chemical substance/The level of expressed mRNA in the absence of chemical substance” value (yeast gene YMR107W, cultured two hours with substance) was 1.0. For the same molecule, the “The level of expressed mRNA in the presence of chemical substance/The level of expressed mRNA in the absence of chemical substance” value (yeast gene YMR140W, cultured two hours with substance) was 17.1, the “The level of expressed mRNA in the presence of chemical substance/The level of expressed mRNA in the absence of chemical substance” value (yeast gene YMR173W (stress protein genes)) was 5.0 and the “The level of expressed mRNA in the presence of chemical substance/The level of expressed mRNA in the absence of chemical substance” value (yeast gene YMR180C, cultured two hours with substance) was 2.4. For the same molecule, the “The level of expressed mRNA in the presence of chemical substance/The level of expressed mRNA in the absence of chemical substance” value (yeast gene YMR184W, cultured two hours with substance) was 0.9, the “The level of expressed mRNA in the presence of chemical substance/The level of expressed mRNA in the absence of chemical substance” value (yeast gene YMR191W, cultured two hours with substance) was 1.0 and the “The level of expressed mRNA in the presence of chemical substance/The level of expressed mRNA in the absence of chemical substance” value (yeast gene YMR295C, cultured two hours with substance) was 1.9. The “The level of expressed mRNA in the presence of chemical substance/The level of expressed mRNA in the absence of chemical substance” value (yeast gene YMR316W, cultured two hours with substance) was 0.7, the “The level of expressed mRNA in the presence of chemical substance/The level of expressed mRNA in the absence of chemical substance” value (yeast gene YNL044W, cultured two hours with substance) was 0.9 and the “The level of expressed mRNA in the presence of chemical substance/The level of expressed mRNA in the absence of chemical substance” value (yeast gene YNL074C, cultured two hours with substance) was 1.7. The “The level of expressed mRNA in the presence of chemical substance/The level of expressed mRNA in the absence of chemical substance” value (yeast gene YNL092W, cultured two hours with substance) was 1.2, the “The level of expressed mRNA in the presence of chemical substance/The level of expressed mRNA in the absence of chemical substance” value (yeast gene YNL115C, cultured two hours with substance) was 9.1 and the “The level of expressed mRNA in the presence of chemical substance/The level of expressed mRNA in the absence of chemical substance” value (yeast gene YNL156C, cultured two hours with substance) was 1.3. For the same molecule, the “The level of expressed mRNA in the presence of chemical substance/The level of expressed mRNA in the absence of chemical substance” value (yeast gene YNL160W (stress protein genes)) was 5.8, the “The level of expressed mRNA in the presence of chemical substance/The level of expressed mRNA in the absence of chemical substance” value (yeast gene YNL190W, cultured two hours with substance) was 0.5 and the “The level of expressed mRNA in the presence of chemical substance/The level of expressed mRNA in the absence of chemical substance” value (yeast gene YNL208W, cultured two hours with substance) was 1.4. For the same molecule, the “The level of expressed mRNA in the presence of chemical substance/The level of expressed mRNA in the absence of chemical substance” value (yeast gene YNL234W, cultured two hours with substance) was 1.3, the “The level of expressed mRNA in the presence of chemical substance/The level of expressed mRNA in the absence of chemical substance” value (yeast gene YNL281W, cultured two hours with substance) was 0.9 and the “The level of expressed mRNA in the presence of chemical substance/The level of expressed mRNA in the absence of chemical substance” value (yeast gene YNL300W, cultured two hours with substance) was 0.4. The “The level of expressed mRNA in the presence of chemical substance/The level of expressed mRNA in the absence of chemical substance” value (yeast gene YNL305C, cultured two hours with substance) was 1.1, the “The level of expressed mRNA in the presence of chemical substance/The level of expressed mRNA in the absence of chemical substance” value (yeast gene YNR064C, cultured two hours with substance) was 2.1 and the “The level of expressed mRNA in the presence of chemical substance/The level of expressed mRNA in the absence of chemical substance” value (yeast gene YNR068C, cultured two hours with substance) was 0.4. The “The level of expressed mRNA in the presence of chemical substance/The level of expressed mRNA in the absence of chemical substance” value (yeast gene YOL032W, cultured two hours with substance) was 2.1, the “The level of expressed mRNA in the presence of chemical substance/The level of expressed mRNA in the absence of chemical substance” value (yeast gene YOL036W, cultured two hours with substance) was 1.2 and the “The level of expressed mRNA in the presence of chemical substance/The level of expressed mRNA in the absence of chemical substance” value (yeast gene YOL047C, cultured two hours with substance) was 1.5. For the same molecule, the “The level of expressed mRNA in the presence of chemical substance/The level of expressed mRNA in the absence of chemical substance” value (yeast gene YOL071W, cultured two hours with substance) was 1.7, the “The level of expressed mRNA in the presence of chemical substance/The level of expressed mRNA in the absence of chemical substance” value (yeast gene YOL082W, cultured two hours with substance) was 1.8 and the “The level of expressed mRNA in the presence of chemical substance/The level of expressed mRNA in the absence of chemical substance” value (yeast gene YOL083W, cultured two hours with substance) was 4.5. The “The level of expressed mRNA in the presence of chemical substance/The level of expressed mRNA in the absence of chemical substance” value (yeast gene YOL117W, cultured two hours with substance) was 2.0, the “The level of expressed mRNA in the presence of chemical substance/The level of expressed mRNA in the absence of chemical substance” value (yeast gene YOL131W, cultured two hours with substance) was 1.1 and the “The level of expressed mRNA in the presence of chemical substance/The level of expressed mRNA in the absence of chemical substance” value (yeast gene YOL150C, cultured two hours with substance) was 5.2. The “The level of expressed mRNA in the presence of chemical substance/The level of expressed mRNA in the absence of chemical substance” value (yeast gene YOL162W, cultured two hours with substance) was 1.2, the “The level of expressed mRNA in the presence of chemical substance/The level of expressed mRNA in the absence of chemical substance” value (yeast gene YOR019W, cultured two hours with substance) was 1.3 and the “The level of expressed mRNA in the presence of chemical substance/The level of expressed mRNA in the absence of chemical substance” value (yeast gene YOR197W, cultured two hours with substance) was 1.3. The “The level of expressed mRNA in the presence of chemical substance/The level of expressed mRNA in the absence of chemical substance” value (yeast gene YOR248W, cultured two hours with substance) was 0.2, the “The level of expressed mRNA in the presence of chemical substance/The level of expressed mRNA in the absence of chemical substance” value (yeast gene YOR255W, cultured two hours with substance) was 0.5 and the “The level of expressed mRNA in the presence of chemical substance/The level of expressed mRNA in the absence of chemical substance” value (yeast gene YOR382W, cultured two hours with substance) was 13.1. For the same molecule, the “The level of expressed mRNA in the presence of chemical substance/The level of expressed mRNA in the absence of chemical substance” value (yeast gene YOR383C) was 6.8, the “The level of expressed mRNA in the presence of chemical substance/The level of expressed mRNA in the absence of chemical substance” value (yeast gene YPL052W, cultured two hours with substance) was 1.9 and the “The level of expressed mRNA in the presence of chemical substance/The level of expressed mRNA in the absence of chemical substance” value (yeast gene YPL087W, cultured two hours with substance) was 4.3. The “The level of expressed mRNA in the presence of chemical substance/The level of expressed mRNA in the absence of chemical substance” value (yeast gene YPL196W, cultured two hours with substance) was 2.0, the “The level of expressed mRNA in the presence of chemical substance/The level of expressed mRNA in the absence of chemical substance” value (yeast gene YPL206C, cultured two hours with substance) was 1.8 and the “The level of expressed mRNA in the presence of chemical substance/The level of expressed mRNA in the absence of chemical substance” value (yeast gene YPL222W, cultured two hours with substance) was 2.2. For the same molecule, the “The level of expressed mRNA in the presence of chemical substance/The level of expressed mRNA in the absence of chemical substance” value (yeast gene YPR023C, cultured two hours with substance) was 1.4, the “The level of expressed mRNA in the presence of chemical substance/The level of expressed mRNA in the absence of chemical substance” value (yeast gene YPR079W, cultured two hours with substance) was 1.0 and the “The level of expressed mRNA in the presence of chemical substance/The level of expressed mRNA in the absence of chemical substance” value (yeast gene YPR151C, cultured two hours with substance) was 1.6.
